This experiment has as its system biofilm. Kind of experiment: electrolytic cleaning of biofilm-contaminated implant surface (laboratory test). Particulars: implants greatly covered and contaminated with a biofilm, on which tartar has also developed; relatively low dosages.

Experimental findings from US20250204532A1, “Treatment Liquid for Cleaning an Implant Part” (Zyfoma GmbH, priority 2013, published 2025) are described below.

From the text: For detaching the bacteria or germs, respectively their residues or fragments, from the surface, it is provided to wet the latter with a conductive treatment liquid, charging it with current, possibly in the form of pulsed current impulses. […] Here, e.g. oil and/or chlorhexidine can be used. Furthermore, ionic liquids, which preferably contain I^−, Cl^− and/or OH^− ions, can also be used.

Consider `CC(=O)O` [ethanoic acid], for which the cleaning success entry is given as “good cleaning success”.
